Measured values: patent publication US8946238B2, “Pyrazolo[1,5-A]pyrimidines as antiviral agents” (Gilead Sciences, Inc., priority 2011, dated 2015)
Like-named read-outs stand apart in the source and are kept apart here.

Tested on: RSV strain A2
Assay: RSV antiviral cytoprotection assay in Hep2 cells (RSV-induced cytopathic effect, Cell TiterGlo)
Assay type: cell-based, Respiratory Syncytial Virus (RSV)
Conditions: human respiratory syncytial virus
Protocol: Antiviral activity against RSV was determined using an in vitro cytoprotection assay in Hep2 cells. […] The method used was similar to methods previously described in published literature (Chapman et al., Antimicrob Agents Chemother. 2007, 51(9):3346-53.)
Hep2 cells were obtained from ATCC (Manassas, VI) and maintained in MEM media supplemented with 10% fetal bovine serum and penicillin/streptomycin. Cells were passaged twice a week and kept at subconfluent stage. Commercial stock of RSV strain A2 (Advanced Biotechnologies, Columbia, Md.) was titered before compound testing to determine the appropriate dilution of the virus stock that generated desirable cytopathic effect in Hep2 cells.
For antiviral tests, Hep2 cells were seeded into 96-well plates 24 hours before the assay at a density of 3,000 cells/well. On a separate 96 well plate, compounds to be tested were serially diluted in cell culture media. Eight concentrations in 3-fold serial dilution increments were prepared for each tested compound and 100 uL/well of each dilution was transferred in duplicate onto plates with seeded Hep2 cells. Subsequently, appropriate dilution of virus stock previously determined by titration was prepared in cell culture media and 100 uL/well was added to test plates containing cells and serially diluted compounds. Each plate included three wells of infected untreated cells and three wells of uninfected cells that served as 0% and 100% virus inhibition control, respectively. Following the infection with RSV, testing plates were incubated for 4 days in a tissue culture incubator. After the incubation, RSV-induced cytopathic effect was determined using a Cell TiterGlo reagent (Promega, Madison, Wis.) followed by a luminescence read-out. The percentage inhibition was calculated for each tested concentration relative to the 0% and 100% inhibition controls and the EC50 value for each compound was determined by non-linear regression as a concentration inhibiting the RSV-induced cytopathic effect by 50%. Ribavirin (purchased from Sigma, St. Louis, Mo.) was used as a positive control for antiviral activity.
Compounds were also tested for antiviral activity against RSV in Hep2 cells using a 384 well format. Compounds were diluted in DMSO using a 10-step serial dilution in 3-fold increments via automation in 4 adjacent replicates each. Eight compounds were tested per dilution plate. 0.4 uL of diluted compounds were then stamped via Biomek into 384-well plates (Nunc 142761 or 164730 w/lid 264616) containing 20 μL of media (Mediatech Inc. MEM supplemented with Glutamine, 10% FBS and Pen/Strep). DMSO and a suitable positive control compound, such as 80 μM GS-329467 or 10 μM 427346 was used for the 100% and 0% cell killing controls, respectively.
Hep2 cells (1.0×10^5 cells/ml) were prepared as above in batch to at least 40 mls excess of the number of sample plates (8 mls cell mix per plate) and infected with vendor supplied (ABI) RSV strain A2 to arrive at an MOI of 1:1000 (virus:cell #) or 1:3000 (vol virus: cell vol). Immediately after addition of virus, the RSV infected Hep2 cell suspension was added to each stamped 384-well plate at 20 μl per well using a uFlow dispenser, giving a final volume of 40 μL/well, each with 2000 infected cells. The plates were then incubated for 5 days at 37° C. and 5% CO2. Following incubation, the plates were equilibrated to room temperature in a biosafety cabinet hood for 1.5 hrs and 40 μL of Cell-Titer Glo viability reagent (Promega) was added to each well via uFlow. Following a10-20 minute incubation, the plates were read using an EnVision or Victor Luminescence plate reader (Perkin-Elmer). The data was then uploaded and analyzed on the Bioinformatics portal under the RSV Cell Infectivity and 8-plate EC50-Hep2-384 or 8-plate EC50-Hep2-Envision protocols. […]

[1] = HEp-2, 0.5 μM compound, RSV A2-infected Hep2 cells, % inhibition calculated from 4-parameter dose response curve, normalized to 0% and 100%, read-out: Percent inhibition at 0.5 μM

## Cc1cn2nc([C@@H]3CCCCN3C(=O)c3cccc4cn[nH]c34)cc2nc1N1C[C@@H](C#N)[C@@H](O)C1 [Compound 123]
[1]
  inhibition at 0.5 µM: 98%

## Cc1cn2nc([C@@H]3CCCCN3C(=O)c3ccc(F)c(F)c3C)cc2nc1N1CC[C@H](N)C1 [Compound 72]
[1]
  inhibition at 0.5 µM: 100%

## Cc1cn2nc([C@@H]3CCCCN3C(=O)c3cc(F)c(F)c(Cl)c3F)cc2nc1N1C[C@@H](C#N)[C@@H](O)C1 [Compound 114]
[1]
  inhibition at 0.5 µM: 100%

## COc1ccccc1C(=O)N1CCCC[C@H]1c1cc2nc(N3C[C@@H](C#N)[C@@H](O)C3)c(C)cn2n1 [Compound 113]
[1]
  inhibition at 0.5 µM: 100%

## Cc1cn2nc([C@@H]3CCCCN3C(=O)c3cccc4c3OCO4)cc2nc1N1C[C@@H](C#N)[C@@H](O)C1 [Compound 140]
[1]
  inhibition at 0.5 µM: 100%

## Cc1cn2nc([C@@H]3CCCCN3C(=O)c3cc(Cl)ccc3NS(C)(=O)=O)cc2nc1N1C[C@@H](C#N)[C@@H](OC(=O)[C@H](N)C(C)C)C1 [Compound 204]
[1]
  inhibition at 0.5 µM: 100%

## Cc1ccc(C(=O)N2CCCC[C@H]2c2cc3nc(N4CC[C@H](N)C4)c(C)cn3n2)c(C(F)(F)F)c1 [Compound 36]
[1]
  inhibition at 0.5 µM: 98%

## Cc1ccc(S(N)(=O)=O)cc1C(=O)N1CCCC[C@H]1c1cc2nc(N3CC[C@H](N)C3)c(C)cn2n1 [Compound 59]
[1]
  inhibition at 0.5 µM: 52%

## Cc1cn2nc([C@@H]3CCCCN3C(=O)c3c(Cl)nc4ccccn34)cc2nc1N1CC[C@H](N)C1 [Compound 56]
[1]
  inhibition at 0.5 µM: 84%

## Cc1cn2nc([C@@H]3CCCCN3C(=O)c3c(F)cccc3F)cc2nc1N1C[C@@H](C#N)[C@@H](O)C1 [Compound 157]
[1]
  inhibition at 0.5 µM: 98%

## Cc1ccc(C(=O)N2CCCC[C@H]2c2cc3nc(N4C[C@@H](C#N)[C@@H](O)C4)c(C)cn3n2)c(Cl)c1 [Compound 131]
[1]
  inhibition at 0.5 µM: 96%

## Cc1cn2nc([C@@H]3CCCCN3C(=O)c3ccccc3-c3ccccc3)cc2nc1N1C[C@@H](C#N)[C@@H](O)C1 [Compound 180]
[1]
  inhibition at 0.5 µM: 94%

## Cc1cn2nc([C@@H]3CCCCN3C(=O)c3cc(Cl)ccc3NS(C)(=O)=O)cc2nc1NCC(N)c1ccccc1 (some centres unmarked) [Compound 3]
[1]
  inhibition at 0.5 µM: 100%

## Cc1ccc(C(=O)N2CCCC[C@H]2c2cc3nc(N4CC[C@H](N)C4)c(C)cn3n2)c(Cl)c1 [Compound 49]
[1]
  inhibition at 0.5 µM: 99%

## Cc1ccc(C(F)(F)F)c(C(=O)N2CCCC[C@H]2c2cc3nc(N4CC[C@H](N)C4)c(C)cn3n2)c1 [Compound 35]
[1]
  inhibition at 0.5 µM: 100%

## Cc1cn2nc([C@@H]3CCCCN3C(=O)c3cc(Cl)ccc3NS(C)(=O)=O)cc2nc1NCC(C)N (some centres unmarked) [Compound 1]
[1]
  inhibition at 0.5 µM: 100%

## Cc1ccc(Br)cc1C(=O)N1CCCC[C@H]1c1cc2nc(N3C[C@@H](C#N)[C@@H](O)C3)c(C)cn2n1 [Compound 112]
[1]
  inhibition at 0.5 µM: 100%

## Cc1cn2nc([C@@H]3CCCCN3C(=O)c3cc(C(F)(F)F)ccn3)cc2nc1N1C[C@@H](C#N)[C@@H](O)C1 [Compound 168]
[1]
  inhibition at 0.5 µM: 44%

## Cc1cn2nc([C@@H]3CCCCN3C(=O)c3cc(Cl)ccc3OC(C)C)cc2nc1N1CC[C@H](N)C1 [Compound 63]
[1]
  inhibition at 0.5 µM: 100%

## Cc1cn2nc([C@@H]3CCCCN3C(=O)c3ncccc3F)cc2nc1N1CC[C@H](N)C1 [Compound 71]
[1]
  inhibition at 0.5 µM: 98%

## Cc1cn2nc([C@@H]3CCCCN3C(=O)c3ccccc3OC3CCCC3)cc2nc1N1C[C@@H](C#N)[C@@H](O)C1 [Compound 144]
[1]
  inhibition at 0.5 µM: 80%

## Cc1cn2nc([C@@H]3CCCCN3C(=O)c3cc(Cl)ccc3NS(C)(=O)=O)cc2nc1N1C[C@@H](C#N)[C@@H](OP(=O)(O)O)C1 [Compound 192]
[1]
  inhibition at 0.5 µM: 100%

## Cc1cn2nc([C@@H]3CCCCN3C(=O)c3cc(F)ccc3OC(F)(F)F)cc2nc1N1C[C@@H](C#N)[C@@H](O)C1 [Compound 122]
[1]
  inhibition at 0.5 µM: 100%

## Cc1ccc(NS(C)(=O)=O)c(C(=O)N2CCCC[C@H]2c2cc3nc(N4C[C@@H](C#N)[C@@H](O)C4)c(C)cn3n2)c1 [Compound 200]
HEp-2, read-out: Percent inhibition at 0.5 μM
  inhibition at 0.5 µM: 100%

## COc1ccc(Cl)c(C(=O)N2CCCC[C@H]2c2cc3nc(N4C[C@@H](C#N)[C@@H](O)C4)c(C)cn3n2)c1 [Compound 188]
[1]
  inhibition at 0.5 µM: 100%

## Cc1cn2nc([C@@H]3CCCCN3C(=O)c3c(Cl)c(C)nn3C)cc2nc1N1C[C@@H](C#N)[C@@H](O)C1 [Compound 182]
[1]
  inhibition at 0.5 µM: 93%

## Cc1cn2nc([C@@H]3CCCCN3C(=O)c3nc(Cl)ccc3Cl)cc2nc1N1CC[C@H](N)C1 [Compound 74]
[1]
  inhibition at 0.5 µM: 100%

## Cc1ccc(Cl)cc1C(=O)N1CCCC[C@H]1c1cc2nc(N3C[C@@H](C#N)[C@@H](O)C3)c(C)cn2n1 [Compound 202]
[1]
  inhibition at 0.5 µM: 100%

## Cc1cn2nc([C@@H]3CCCCN3C(=O)c3ccc(-n4cncn4)cc3Cl)cc2nc1N1CC[C@H](N)C1 [Compound 102]
[1]
  inhibition at 0.5 µM: 16%

## COc1cc(C)c(C(=O)N2CCCC[C@H]2c2cc3nc(N4CC[C@H](N)C4)c(C)cn3n2)cc1C [Compound 85]
[1]
  inhibition at 0.5 µM: 100%

## COc1cc(C)c(C(=O)N2CCCC[C@H]2c2cc3nc(N4C[C@@H](C#N)[C@@H](O)C4)c(C)cn3n2)cc1C [Compound 167]
[1]
  inhibition at 0.5 µM: 100%

## Cc1cn2nc([C@@H]3CCCCN3C(=O)c3ncccc3Br)cc2nc1N1CC[C@H](N)C1 [Compound 76]
[1]
  inhibition at 0.5 µM: 99%

## Cc1cn2nc([C@@H]3CCCCN3C(=O)c3ccccc3Cl)cc2nc1N1C[C@@H](C#N)[C@@H](O)C1 [Compound 146]
[1]
  inhibition at 0.5 µM: 100%

## Cc1cn2nc([C@@H]3CCCCN3C(=O)c3cc(Cl)ccc3NS(C)(=O)=O)cc2nc1NCC1(N)CC1 [Compound 2]
[1]
  inhibition at 0.5 µM: 100%

## Cc1cn2nc([C@@H]3CCCCN3C(=O)c3cc(Cl)ccc3NS(C)(=O)=O)cc2nc1N1C[C@@H](C#N)[C@@H](OC(=O)[C@H]2CCCN2)C1 [Compound 205]
[1]
  inhibition at 0.5 µM: 100%

## CNC(=O)[C@H]1CN(c2nc3cc([C@@H]4CCCCN4C(=O)c4cc(Cl)ccc4NS(C)(=O)=O)nn3cc2C)CCN1 [Compound 23]
[1]
  inhibition at 0.5 µM: 48%

## Cc1cn2nc([C@@H]3CCCCN3C(=O)c3cccc(C(F)(F)F)n3)cc2nc1N1C[C@@H](C#N)[C@@H](O)C1 [Compound 148]
[1]
  inhibition at 0.5 µM: 77%

## Cc1cn2nc([C@@H]3CCCCN3C(=O)c3cc(C(F)(F)F)ccn3)cc2nc1N1CC[C@H](N)C1 [Compound 86]
[1]
  inhibition at 0.5 µM: 80%

## Cc1cn2nc([C@@H]3CCCCN3C(=O)c3nc(Cl)ccc3Cl)cc2nc1N1C[C@@H](C#N)[C@@H](O)C1 [Compound 152]
[1]
  inhibition at 0.5 µM: 100%

## Cc1ccc(S(C)(=O)=O)cc1C(=O)N1CCCC[C@H]1c1cc2nc(N3CC[C@H](N)C3)c(C)cn2n1 [Compound 58]
[1]
  inhibition at 0.5 µM: 61%

## Cc1cn2nc([C@@H]3CCCCN3C(=O)c3csc4ccc(Br)cc34)cc2nc1N1CC[C@H](N)C1 [Compound 99]
[1]
  inhibition at 0.5 µM: 100%

## Cc1cn2nc([C@@H]3CCCCN3C(=O)c3cccc4c3CCCC4)cc2nc1N1CC[C@H](N)C1 [Compound 31]
[1]
  inhibition at 0.5 µM: 100%

## Cc1cn2nc([C@@H]3CCCCN3C(=O)c3cccc4ccncc34)cc2nc1N1CC[C@H](N)C1 [Compound 46]
[1]
  inhibition at 0.5 µM: 100%

## Cc1cc(F)ccc1C(=O)N1CCCC[C@H]1c1cc2nc(N3C[C@@H](C#N)[C@@H](O)C3)c(C)cn2n1 [Compound 155]
[1]
  inhibition at 0.5 µM: 100%

## Cc1cn2nc([C@@H]3CCCCN3C(=O)c3ccccc3C(F)(F)F)cc2nc1N1C[C@@H](C#N)[C@@H](O)C1 [Compound 184]
[1]
  inhibition at 0.5 µM: 100%

## Cc1cn2nc([C@@H]3CCCCN3C(=O)c3cc(I)ccn3)cc2nc1N1C[C@@H](C#N)[C@@H](O)C1 [Compound 161]
[1]
  inhibition at 0.5 µM: 61%

## Cc1cccc(C(=O)N2CCCC[C@H]2c2cc3nc(N4C[C@@H](C#N)[C@@H](O)C4)c(C)cn3n2)n1 [Compound 176]
[1]
  inhibition at 0.5 µM: 97%
